Reference: patent publication US20100311841A1, “SYNTHETIC SPHINGOLIPID ANALOGS” (priority 2007, published 2010)

Tested on: TSU-PR1 cells
Assay: TSU-PR1 tumor xenograft in whole-body-irradiated BALB/NUDE mice
Format: in vivo
Conditions: BALB/NUDE mice irradiated with 400 cGy, s.c. TSU-PR1 tumors; AD-2813 20 mg/kg in cremophor s.c. daily close to tumor; after about 10 days of treatment; compared to control and cremophor groups (FIG. 1)
Description: BALB/NUDE mice were whole body irradiated with 400 cGy, 10 days later they were injected s.c. with 3.5*10e6 TSU-PR1 cells/mouse which are commonly considered as prostate carcinoma cells but recently are also considered by some as bladder carcinoma cells. Eight days later, tumors were formed, and mice were separated into 3 groups: Group 1: a control without any injection. Group 2: were injected s.c. with vehicle (cremophor) Group 3: were treated s.c. daily with AD-2813 (20 mg/kg in cremophor) close to tumor. […] The drastic change in tumor volume is pronounced particularly when compared to the control and treatment with cremophor groups.

Structure (SMILES): CCCCCCCCCCCCCCNC(CO)C(O)c1ccc(SC)cc1.Cl (stereo not shown) [AD-2813]
- tumor volume: significant decrease in tumor volume
